Measurements taken from the supplement of paper PMC10307832.

What was measured:
Experiment in all cases: relative viability (nuclei count vs DMSO), 5 days (fraction); higher = more cells survive
LU99A = test system: LU99A
How it was run: (§1)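 Dosing by pin tool came one day after lung cancer cell lines were seeded in 1536-well plates, using either one drug or a fixed anchor-drug dose plus five library-drug doses (not always all listed) in √10 steps. After 5 days, nuclei were counted on 4× images. Relative viability is treated-well nuclei count divided by vehicle-well nuclei count, and values are medians of duplicate plates.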

COR-L 105 = test system: COR-L 105
How it was run: as §1

NCI-H358 = test system: NCI-H358
How it was run: as §1

NCI-H2085 = test system: NCI-H2085
How it was run: as §1

HOP-62 = test system: HOP-62
How it was run: as §1

SK-LU-1 = test system: SK-LU-1
How it was run: as §1

UMC-11 = test system: UMC-11
How it was run: as §1

SW 900 = test system: SW 900
How it was run: as §1

NCI-H2170 = test system: NCI-H2170
How it was run: as §1

LCLC-97TM1 = test system: LCLC-97TM1
How it was run: as §1

NCI-H1755 = test system: NCI-H1755
How it was run: as §1

NCI-H460 = test system: NCI-H460
How it was run: as §1

NCI-H1915 = test system: NCI-H1915
How it was run: as §1

HCC-78 = test system: HCC-78
How it was run: as §1

EPLC-272H = test system: EPLC-272H
How it was run: as §1

NCI-H1944 = test system: NCI-H1944
How it was run: as §1

NCI-H1975 = test system: NCI-H1975
How it was run: as §1

A-427 = test system: A-427
How it was run: as §1

LC-2-ad = test system: LC-2-ad
How it was run: as §1

HCC-366 = test system: HCC-366
How it was run: as §1

LXF-289 = test system: LXF-289
How it was run: as §1

NCI-H1793 = test system: NCI-H1793
How it was run: as §1

Q: What does the source list for `CC1(C)CCC(c2ccc(Cl)cc2)=C(CN2CCN(c3ccc(C(=O)NS(=O)(=O)c4ccc(N[C@H](CCN5CCOCC5)CSc5ccccc5)c(S(=O)(=O)C(F)(F)F)c4)cc3)CC2)C1` [Navitoclax] + Cc1cc(Nc2cc(N3CCN(C)CC3)nc(Sc3ccc(NC(=O)C4CC4)cc3)n2)n[nH]1 [Tozasertib] (partner 0.1 µM)?
A: relative viability (LU99A; first compound 0.005 µM): 0.264; relative viability (LU99A; first compound 0.01581 µM): 0.355; relative viability (LU99A; first compound 0.05 µM): 0.244; relative viability (LU99A; first compound 0.1581 µM): 0.337; relative viability (LU99A; first compound 0.5 µM): 0.37; relative viability (COR-L 105; first compound 0.005 µM): 0.353; relative viability (COR-L 105; first compound 0.01581 µM): 0.338; relative viability (COR-L 105; first compound 0.05 µM): 0.369; relative viability (COR-L 105; first compound 0.1581 µM): 0.348; relative viability (COR-L 105; first compound 0.5 µM): 0.29; relative viability (NCI-H358; first compound 0.005 µM): 0.1; relative viability (NCI-H358; first compound 0.01581 µM): 0.0998; relative viability (NCI-H358; first compound 0.05 µM): 0.105; relative viability (NCI-H358; first compound 0.1581 µM): 0.122; relative viability (NCI-H358; first compound 0.5 µM): 0.109; relative viability (NCI-H2085; first compound 0.005 µM): 0.804; relative viability (NCI-H2085; first compound 0.01581 µM): 0.734; relative viability (NCI-H2085; first compound 0.05 µM): 0.811; relative viability (NCI-H2085; first compound 0.1581 µM): 0.772; relative viability (NCI-H2085; first compound 0.5 µM): 0.752; relative viability (HOP-62; first compound 0.005 µM): 0.389; relative viability (HOP-62; first compound 0.01581 µM): 0.4; relative viability (HOP-62; first compound 0.05 µM): 0.366; relative viability (HOP-62; first compound 0.1581 µM): 0.299; relative viability (HOP-62; first compound 0.5 µM): 0.374; relative viability (SK-LU-1; first compound 0.005 µM): 0.326; relative viability (SK-LU-1; first compound 0.01581 µM): 0.324; relative viability (SK-LU-1; first compound 0.05 µM): 0.308; relative viability (SK-LU-1; first compound 0.1581 µM): 0.318; relative viability (SK-LU-1; first compound 0.5 µM): 0.298; relative viability (UMC-11; first compound 0.005 µM): 0.196; relative viability (UMC-11; first compound 0.01581 µM): 0.184; relative viability (UMC-11; first compound 0.05 µM): 0.207; relative viability (UMC-11; first compound 0.1581 µM): 0.2; relative viability (UMC-11; first compound 0.5 µM): 0.188; relative viability (SW 900; first compound 0.005 µM): 0.456; relative viability (SW 900; first compound 0.01581 µM): 0.46; relative viability (SW 900; first compound 0.05 µM): 0.385; relative viability (SW 900; first compound 0.1581 µM): 0.59; relative viability (SW 900; first compound 0.5 µM): 0.501; relative viability (NCI-H2170; first compound 0.005 µM): 0.716; relative viability (NCI-H2170; first compound 0.01581 µM): 0.71; relative viability (NCI-H2170; first compound 0.05 µM): 0.689; relative viability (NCI-H2170; first compound 0.1581 µM): 0.684; relative viability (NCI-H2170; first compound 0.5 µM): 0.665; relative viability (LCLC-97TM1; first compound 0.005 µM): 0.238; relative viability (LCLC-97TM1; first compound 0.01581 µM): 0.164; relative viability (LCLC-97TM1; first compound 0.05 µM): 0.255; relative viability (LCLC-97TM1; first compound 0.1581 µM): 0.193; relative viability (LCLC-97TM1; first compound 0.5 µM): 0.224; relative viability (NCI-H1755; first compound 0.005 µM): 0.523; relative viability (NCI-H1755; first compound 0.01581 µM): 0.599; relative viability (NCI-H1755; first compound 0.05 µM): 0.441; relative viability (NCI-H1755; first compound 0.1581 µM): 0.453; relative viability (NCI-H1755; first compound 0.5 µM): 0.527; relative viability (NCI-H460; first compound 0.005 µM): 0.392; relative viability (NCI-H460; first compound 0.01581 µM): 0.327; relative viability (NCI-H460; first compound 0.05 µM): 0.37; relative viability (NCI-H460; first compound 0.1581 µM): 0.382; relative viability (NCI-H460; first compound 0.5 µM): 0.397; relative viability (NCI-H1915; first compound 0.005 µM): 0.42; relative viability (NCI-H1915; first compound 0.01581 µM): 0.422; relative viability (NCI-H1915; first compound 0.05 µM): 0.432; relative viability (NCI-H1915; first compound 0.1581 µM): 0.414; relative viability (NCI-H1915; first compound 0.5 µM): 0.418; relative viability (HCC-78; first compound 0.005 µM): 0.403; relative viability (HCC-78; first compound 0.01581 µM): 0.594; relative viability (HCC-78; first compound 0.1581 µM): 0.584; relative viability (HCC-78; first compound 0.5 µM): 0.428; relative viability (EPLC-272H; first compound 0.005 µM): 0.28; relative viability (EPLC-272H; first compound 0.05 µM): 0.313; relative viability (EPLC-272H; first compound 0.1581 µM): 0.204; relative viability (EPLC-272H; first compound 0.5 µM): 0.242; relative viability (NCI-H1944; first compound 0.005 µM): 0.254; relative viability (NCI-H1944; first compound 0.01581 µM): 0.246; relative viability (NCI-H1944; first compound 0.05 µM): 0.241; relative viability (NCI-H1944; first compound 0.1581 µM): 0.259; relative viability (NCI-H1944; first compound 0.5 µM): 0.206; relative viability (NCI-H1975; first compound 0.005 µM): 0.791; relative viability (NCI-H1975; first compound 0.01581 µM): 0.917; relative viability (NCI-H1975; first compound 0.05 µM): 0.714; relative viability (NCI-H1975; first compound 0.1581 µM): 0.734; relative viability (NCI-H1975; first compound 0.5 µM): 0.815; relative viability (A-427; first compound 0.005 µM): 0.199; relative viability (A-427; first compound 0.01581 µM): 0.192; relative viability (A-427; first compound 0.05 µM): 0.161; relative viability (A-427; first compound 0.1581 µM): 0.197; relative viability (A-427; first compound 0.5 µM): 0.213; relative viability (LC-2-ad; first compound 0.005 µM): 0.455; relative viability (LC-2-ad; first compound 0.01581 µM): 0.544; relative viability (LC-2-ad; first compound 0.05 µM): 0.546; relative viability (LC-2-ad; first compound 0.1581 µM): 0.507; relative viability (LC-2-ad; first compound 0.5 µM): 0.343; relative viability (HCC-366; first compound 0.005 µM): 0.109; relative viability (HCC-366; first compound 0.01581 µM): 0.11; relative viability (HCC-366; first compound 0.1581 µM): 0.118; relative viability (HCC-366; first compound 0.5 µM): 0.117; relative viability (LXF-289; first compound 0.005 µM): 0.192; relative viability (LXF-289; first compound 0.01581 µM): 0.222; relative viability (LXF-289; first compound 0.05 µM): 0.15; relative viability (LXF-289; first compound 0.1581 µM): 0.193; relative viability (LXF-289; first compound 0.5 µM): 0.217; relative viability (NCI-H1793; first compound 0.005 µM): 0.338; relative viability (NCI-H1793; first compound 0.01581 µM): 0.394; relative viability (NCI-H1793; first compound 0.1581 µM): 0.278; relative viability (NCI-H1793; first compound 0.5 µM): 0.275
